Consider ten compounds from US20090270413A1, “DI-T-BUTYLPHENYL PIPERAZINES AS CALCIUM CHANNEL BLOCKERS” (priority 2008, published 2009).

Molecules are shown by their SMILES.

What all share (type): cell-based
Assay [1] concerns the target T1, Cav3.2 (T-type channel alpha-1H) (Homo sapiens, UniProt O95180).
T1 construct: expressed in transfected cells; host or cells: HEK 293
As to the kind of experiment: T-type calcium channel voltage-clamp assay, Cav3.2. The settings on record: read-out: Cav 3.2 IC50. As to the method: (§1) The T-type calcium channel blocking activity of the compounds of this invention may be readily determined using the methodology well known in the art described by Xia, et al., Assay and Drug Development Tech., 1 (5), 637-645 (2003).
(§2) In a typical experiment ion channel function from HEK 293 cells expressing the T-type channel alpha-1G, H, or I (CaV 3.1, 3.2, 3.3) is recorded to determine the activity of compounds in blocking the calcium current mediated by the T-type channel alpha-1G, H, or I (CaV 3.1, 3.2, 3.3). In this T-type calcium (Ca^2+) antagonist voltage-clamp assay calcium currents are elicited from the resting state of the human alpha-1G, H, or I (CaV 3.1, 3.2, 3.3) calcium channel as follows. Sequence information for T-type (Low-voltage activated) calcium channels are fully disclosed in e.g., U.S. Pat. No. 5,618,720, U.S. Pat. No. 5,686,241, U.S. Pat. No. 5,710,250,U.S. Pat. No. 5,726,035, U.S. Pat. No. 5,792,846, U.S. Pat. No. 5,846,757, U.S. Pat. No. 5,851,824, U.S. Pat. No. 5,874,236, U.S. Pat. No. 5,876,958, U.S. Pat. No. 6,013,474, U.S. Pat. No. 6,057,114, U.S. Pat. No. 6,096,514, WO 99/28342, and J. Neuroscience, 19 (6):1912-1921 (1999). Cells expressing the t-type channels were grown in H3D5 growth media which is comprised DMEM, 6% bovine calf serum (HYCLONE), 30 micromolar Verapamil, 200 microgram/ml Hygromycin B, 1× Penicillin/Streptomycin. Glass pipettes are pulled to a tip diameter of 1-2 micrometer on a pipette puller. The pipettes are filled with the intracellular solution and a chloridized silver wire is inserted along its length, which is then connected to the headstage of the voltage-clamp amplifier. Trypsinization buffer was 0.05% Trypsin, 0.53 mM EDTA. The extracellular recording solution consists of (mM): 130 mM NaCl, 4 mM KCl, 1 mM MgCl2, 2 mM CaCl2, 10 mM HEPES, 30 Glucose, pH 7.4. The internal solution consists of (mM): 135 mM CsMeSO4, 1 MgCl2, 10 CsCl, 5 EGTA, 10 HEPES, pH 7.4, or 135 mM CsCl, 2 MgCl2, 3 MgATP, 2 Na2ATP, 1 Na2GTP, 5 EGTA, 10 HEPES, pH 7.4. Upon insertion of the pipette tip into the bath, the series resistance is noted (acceptable range is between 1-4 megaohm). The junction potential between the pipette and bath solutions is zeroed on the amplifier. The cell is then patched, the patch broken, and, after compensation for series resistance (>=80%), the voltage protocol is applied while recording the whole cell Ca2+ current response. Voltage protocols: (1) −80 mV holding potential every 20 seconds pulse to −20 mV for 40 msec duration; the effectiveness of the drug in inhibiting the current mediated by the channel is measured directly from measuring the reduction in peak current amplitude initiated by the voltage shift from −80 mV to −20 mV; (2). −100 mV holding potential every 15 seconds pulse to −20 mV for 40 msec duration; the effectiveness of the drug in inhibiting the current mediated by the channel is measured directly from measuring the reduction in peak current amplitude initiated by the shift in potential from −100 mV to […]. The difference in block at the two holding potentials was used to determine the effect of drug at differing levels of inactivation induced by the level of resting state potential of the cells. After obtaining control baseline calcium currents, extracellular solutions containing increasing concentrations of a test compound are washed on. Once steady state inhibition at a given compound concentration is reached, a higher concentration of compound is applied. % inhibition of the peak inward control Ca2+ current during the depolarizing step to −20 mV is plotted as a function of compound concentration.

In assay [2] the target is T2, Human Cav2.2 channels (Homo sapiens, UniProt Q00975).
T2 construct: expressed in transfected cells
T2 sequence (Q00975 whole entry): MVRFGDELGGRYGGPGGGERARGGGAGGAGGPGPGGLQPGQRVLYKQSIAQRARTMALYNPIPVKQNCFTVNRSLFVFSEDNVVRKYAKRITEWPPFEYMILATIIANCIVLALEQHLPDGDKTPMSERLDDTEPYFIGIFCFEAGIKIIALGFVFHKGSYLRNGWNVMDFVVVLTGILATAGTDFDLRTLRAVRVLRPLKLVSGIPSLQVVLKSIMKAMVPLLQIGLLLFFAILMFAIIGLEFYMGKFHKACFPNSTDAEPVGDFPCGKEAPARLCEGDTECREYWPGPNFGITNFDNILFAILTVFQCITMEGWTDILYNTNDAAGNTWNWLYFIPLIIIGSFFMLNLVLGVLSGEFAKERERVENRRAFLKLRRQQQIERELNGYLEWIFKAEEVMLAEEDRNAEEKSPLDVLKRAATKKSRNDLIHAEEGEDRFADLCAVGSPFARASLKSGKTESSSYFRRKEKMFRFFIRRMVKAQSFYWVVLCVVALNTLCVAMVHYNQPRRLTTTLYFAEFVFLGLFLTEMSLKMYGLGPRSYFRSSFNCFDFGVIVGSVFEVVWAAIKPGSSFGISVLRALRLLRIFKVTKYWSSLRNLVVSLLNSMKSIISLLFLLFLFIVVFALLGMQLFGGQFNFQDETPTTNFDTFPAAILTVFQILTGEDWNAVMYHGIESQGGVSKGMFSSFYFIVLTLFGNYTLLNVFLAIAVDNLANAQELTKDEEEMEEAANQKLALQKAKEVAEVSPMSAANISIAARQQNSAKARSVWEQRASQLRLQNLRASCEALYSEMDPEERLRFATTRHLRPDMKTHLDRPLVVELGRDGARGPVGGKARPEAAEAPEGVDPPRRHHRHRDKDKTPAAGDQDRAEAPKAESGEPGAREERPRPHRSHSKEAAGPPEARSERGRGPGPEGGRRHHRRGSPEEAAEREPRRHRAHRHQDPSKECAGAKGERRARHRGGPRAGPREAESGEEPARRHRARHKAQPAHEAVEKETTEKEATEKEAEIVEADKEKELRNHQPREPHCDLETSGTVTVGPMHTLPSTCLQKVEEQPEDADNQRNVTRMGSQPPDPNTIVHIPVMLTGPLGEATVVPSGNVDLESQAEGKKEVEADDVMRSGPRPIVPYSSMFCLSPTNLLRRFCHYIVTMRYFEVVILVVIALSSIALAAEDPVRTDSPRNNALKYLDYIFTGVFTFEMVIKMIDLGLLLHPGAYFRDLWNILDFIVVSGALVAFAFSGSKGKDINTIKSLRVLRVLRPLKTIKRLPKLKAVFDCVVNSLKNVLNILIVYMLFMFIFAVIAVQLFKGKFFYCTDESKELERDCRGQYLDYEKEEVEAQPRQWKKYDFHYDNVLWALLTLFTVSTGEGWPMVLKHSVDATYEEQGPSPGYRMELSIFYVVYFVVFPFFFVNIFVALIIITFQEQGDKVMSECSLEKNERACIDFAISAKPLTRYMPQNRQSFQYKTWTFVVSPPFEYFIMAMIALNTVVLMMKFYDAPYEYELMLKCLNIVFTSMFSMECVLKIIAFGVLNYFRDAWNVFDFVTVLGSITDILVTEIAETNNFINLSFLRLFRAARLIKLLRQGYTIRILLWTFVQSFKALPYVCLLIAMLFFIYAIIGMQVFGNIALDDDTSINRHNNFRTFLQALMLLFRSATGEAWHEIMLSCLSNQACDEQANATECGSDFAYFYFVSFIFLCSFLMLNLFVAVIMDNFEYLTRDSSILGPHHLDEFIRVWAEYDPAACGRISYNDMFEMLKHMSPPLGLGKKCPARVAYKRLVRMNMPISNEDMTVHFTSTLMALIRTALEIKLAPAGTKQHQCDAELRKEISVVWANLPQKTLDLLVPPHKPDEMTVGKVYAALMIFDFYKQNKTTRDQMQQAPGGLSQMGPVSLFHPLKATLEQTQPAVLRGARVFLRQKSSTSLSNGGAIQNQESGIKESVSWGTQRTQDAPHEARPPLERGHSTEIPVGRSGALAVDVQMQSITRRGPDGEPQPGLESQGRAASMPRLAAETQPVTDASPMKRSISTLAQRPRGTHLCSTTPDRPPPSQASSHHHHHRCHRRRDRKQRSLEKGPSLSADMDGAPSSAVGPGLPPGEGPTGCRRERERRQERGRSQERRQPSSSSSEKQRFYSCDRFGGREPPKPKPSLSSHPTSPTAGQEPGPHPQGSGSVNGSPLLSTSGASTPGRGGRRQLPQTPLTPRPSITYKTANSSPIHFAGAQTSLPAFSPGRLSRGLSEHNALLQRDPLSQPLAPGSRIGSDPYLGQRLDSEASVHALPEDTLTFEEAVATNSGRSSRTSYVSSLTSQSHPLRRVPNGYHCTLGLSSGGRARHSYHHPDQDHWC
T2 sequence (P54289 25-956 partner limits assumed): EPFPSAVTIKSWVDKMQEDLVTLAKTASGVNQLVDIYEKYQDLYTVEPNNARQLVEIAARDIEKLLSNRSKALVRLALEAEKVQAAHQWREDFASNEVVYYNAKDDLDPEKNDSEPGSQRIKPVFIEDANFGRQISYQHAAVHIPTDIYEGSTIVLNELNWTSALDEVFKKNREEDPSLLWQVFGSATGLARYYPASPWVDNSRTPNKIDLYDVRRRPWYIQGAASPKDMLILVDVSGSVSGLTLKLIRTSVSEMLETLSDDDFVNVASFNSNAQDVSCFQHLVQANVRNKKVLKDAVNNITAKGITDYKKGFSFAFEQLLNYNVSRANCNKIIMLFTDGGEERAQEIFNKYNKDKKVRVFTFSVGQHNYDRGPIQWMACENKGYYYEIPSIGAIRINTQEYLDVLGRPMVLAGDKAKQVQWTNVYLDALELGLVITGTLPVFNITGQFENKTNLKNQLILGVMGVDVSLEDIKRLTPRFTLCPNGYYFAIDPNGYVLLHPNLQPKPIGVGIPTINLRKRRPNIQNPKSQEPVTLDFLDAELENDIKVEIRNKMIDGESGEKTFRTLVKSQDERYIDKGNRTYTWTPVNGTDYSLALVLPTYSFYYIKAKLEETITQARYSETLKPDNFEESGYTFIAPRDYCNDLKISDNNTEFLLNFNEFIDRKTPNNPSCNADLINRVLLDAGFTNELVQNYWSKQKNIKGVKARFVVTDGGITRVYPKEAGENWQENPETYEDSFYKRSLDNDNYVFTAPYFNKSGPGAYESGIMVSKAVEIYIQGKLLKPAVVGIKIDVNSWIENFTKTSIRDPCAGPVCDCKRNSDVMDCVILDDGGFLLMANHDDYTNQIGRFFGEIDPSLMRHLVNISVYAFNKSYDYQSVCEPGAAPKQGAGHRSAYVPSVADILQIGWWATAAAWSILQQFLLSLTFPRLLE
T2 sequence (P54289 957-1103 partner limits assumed): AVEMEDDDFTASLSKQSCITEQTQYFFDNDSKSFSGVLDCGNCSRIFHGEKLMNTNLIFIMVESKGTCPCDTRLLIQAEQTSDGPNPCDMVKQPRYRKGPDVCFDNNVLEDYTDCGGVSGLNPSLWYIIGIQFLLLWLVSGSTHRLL
T2 sequence (P54284 whole entry partner): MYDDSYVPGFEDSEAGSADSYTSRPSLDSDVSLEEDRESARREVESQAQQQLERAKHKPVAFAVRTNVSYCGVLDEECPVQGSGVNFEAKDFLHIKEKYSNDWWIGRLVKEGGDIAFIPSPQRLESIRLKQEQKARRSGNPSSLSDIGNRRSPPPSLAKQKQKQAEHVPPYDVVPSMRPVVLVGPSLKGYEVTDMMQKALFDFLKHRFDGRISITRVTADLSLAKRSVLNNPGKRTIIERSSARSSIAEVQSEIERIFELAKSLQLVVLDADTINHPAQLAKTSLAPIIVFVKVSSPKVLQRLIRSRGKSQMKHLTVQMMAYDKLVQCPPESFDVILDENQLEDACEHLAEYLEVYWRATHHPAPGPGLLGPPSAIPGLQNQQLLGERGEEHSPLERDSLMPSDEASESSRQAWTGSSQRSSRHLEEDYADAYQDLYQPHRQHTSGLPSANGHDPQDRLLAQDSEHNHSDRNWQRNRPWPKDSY
Put plainly: Block of Cav2.2 (N-type) channels expressed in HEK293 cells. As to conditions: for inhibition at 10 µM / inhibition at 30 µM: HEK293; for inhibition at 10 µM: read-out: Cav 2.2 % Inh @ 10 μM; for inhibition at 30 µM: read-out: Cav 2.2 % Inh @ 30 μM; for IC50: read-out: Cav 2.2 IC50. The source says: Human Cav2.2 channels were stably expressed in HEK293 cells along with alpha2-delta and beta subunits of voltage-gated calcium channels. An inwardly rectifying potassium channel (Kir2.3) was also expressed in these cells to allow more precise control of the cell membrane potential by extracellular potassium concentration. At low bath potassium concentration, the membrane potential is relatively negative, and is depolarized as the bath potassium concentration is raised. In this way, the bath potassium concentration can be used to regulate the voltage-dependent conformations of the channels. Compounds are incubated with cells in the presence of low (4 mM) potassium or elevated (12, 25 or 30 mM) potassium to determine the affinity for compound block of resting (closed) channels at 4 mM potassium or affinity for block of open and inactivated channels at 12, 25 or 30 mM potassium. After the incubation period, Cav2.2 channel opening is triggered by addition of higher concentration of potassium (70 mM final concentration) to further depolarize the cell. The degree of state-dependent block can be estimated from the inhibitory potency of compounds after incubation in different potassium concentrations.
Calcium influx through Cav2.2 channels is determined using a calcium sensitive fluorescent dye in combination with a fluorescent plate reader. Fluorescent changes were measured with either a VIPR (Aurora Instruments) or FLIPR (Molecular Devices) plate reader.
Protocol • 1. Seed cells in Poly-D-Lysine Coated 96 or 384-well plate and keep in a 37° C.-10% CO2 incubator overnight • 2. Remove media, wash cells with 0.2 mL (96-well plate) or 0.05 mL (384-well plate) Dulbecco's Phosphate Buffered Saline (D-PBS) with calcium & magnesium (Invitrogen; 14040) • 3. Add 0.1 mL (96-well plate) or 0.05 mL (384-well plate) of 4 μM fluor-4 (Molecular Probes; F-14202) and 0.02% Pluronic acid (Molecular Probes; P-3000) prepared in D-PBS with calcium & magnesium (Invitrogen; 14040) supplemented with 10 mM Glucose & 10 mM Hepes/NaOH; pH 7.4 • 4. Incubate in the dark at 25° C. for 60-70 min • 5. Remove dye, wash cells with 0.1 mL (96-well plate) or 0.06 mL (384-well plate) of 4, 12, 25, or 30 mM Potassium Pre-polarization Buffer (PPB) • 6. Add 0.1 mL (96-well plate) or 0.03 mL (384-well plate) of 4, 12, 25, 30 mM PPB with or without test compound • 7. Incubate in the dark at 25° C. for 30 min • 8. Read cell plate on VIPR instrument, Excitation=480 nm, Emission=535 nm • 9. With VIPR continuously reading, add 0.1 mL (96-well plate) or 0.03 mL (384-well plate) of Depolarization Buffer (DB), which is 2× the final assay concentration, to the cell plate.
Block of N-type calcium channels is evaluated utilizing the IonWorks HT 384 well automated patch clamp electrophysiology device. This instrument allows synchronous recording from 384 well (48 at a time). A single whole cell recording is made in each well. Whole cell recording is established by perfusion of the internal compartment with amphotericin B.
The voltage protocol is designed to detect use-dependent block. A 2 Hz train of depolarizations (twenty 25 ms steps to +20 mV). The experimental sequence consists of a control train (pre-compound), incubation of cells with compound for 5 minutes, followed by a second train (post-compound). Use dependent block by compounds is estimated by comparing fractional block of the first pulse in the train to block of the 20th pulse.
Parallel patch clamp electrophysiology is performed using IonWorks HT (Molecular Devices Corp) essentially as described by Kiss and colleagues (Kiss et al. 2003; Assay and Drug Development Technologies, 1:127-135). Briefly, a stable HEK 293 cell line (referred to as CBK) expressing the N-type calcium channel subunits (α1B, α2δ, β3a) and an inwardly rectifying potassium channel (Kir2.3) is used to record barium current through the N-type calcium channel. Cells are grown in T75 culture plates to 60-90% confluence before use. […]

Assay [3] has as its target T3, Cav3.1 (T-type channel alpha-1G) (Homo sapiens, UniProt O43497).
T3 construct: expressed in transfected cells; host or cells: HEK 293
Put plainly: T-type calcium channel voltage-clamp assay, Cav3.1. As to conditions: read-out: Cav 3.1 IC50. How it is done: as §1, §2

`CCCSc1ncccc1C(=O)N1CCN(c2cc(C(C)(C)C)cc(C(C)(C)C)c2)CC1` [Compound 31, (4-(3,5-di-tert-butylphenyl)piperazin-1-yl)(2-(propylthio)pyridin-3-yl)methanone]: the IC50 in assay [1] amounted to 1.59 µM. Further, in assay [2], the inhibition at 10 µM is 99%, the inhibition at 30 µM is 104% and the IC50 came out at 0.85 µM. In addition, the IC50 in assay [3] amounted to 1.25 µM.

Take `CC(C)(C)c1cc(N2CCN(C(=O)c3ccccc3)CC2)cc(C(C)(C)C)c1` [Compound 48, (4-(3,5-di-tert-butylphenyl)piperazin-1-yl)(phenyl)methanone]: the IC50 was determined as 0.61 µM in assay [1], 1.48 µM in assay [2] and 0.37 µM in assay [3]. Besides, in assay [2], the inhibition at 10 µM was 103%. In addition, the inhibition at 30 µM in assay [2] was 103%.

Take `Cc1ccc(OCC(=O)N2CCN(c3cc(C(C)(C)C)cc(C(C)(C)C)c3)CC2)c(C)c1` [Compound 14, 1-(4-(3,5-di-tert-butylphenyl)piperazin-1-yl)-2-(2,4-dimethylphenoxy)ethanone]: the concentration for half-maximal inhibition (IC50) in assay [1] was determined as 1.11 µM. In assay [2], the inhibition at 10 µM turned out to be 86%, the inhibition at 30 µM was determined as 93% and the IC50 is 1.37 µM. Further, the IC50 in assay [3] worked out at 1.28 µM.

On to `Cc1nc(C(F)(F)F)c(C(=O)N2CCN(c3cc(C(C)(C)C)cc(C(C)(C)C)c3)CC2)s1` [Compound 41, (4-(3,5-di-tert-butylphenyl)piperazin-1-yl)(2-methyl-4-(trifluoromethyl)thiazol-5-yl)methanone], for which, in assay [1], the IC50 was determined as 1.41 µM. Moreover, in assay [2], the inhibition at 10 µM amounted to 102%, the inhibition at 30 µM was 107% and the IC50 came to 0.83 µM. For the same compound, the IC50 in assay [3] amounted to 1.51 µM.

For `CC(C)c1cc(C(=O)N2CCN(c3cc(C(C)(C)C)cc(C(C)(C)C)c3)CC2)cs1` [Compound 23, (4-(3,5-di-tert-butylphenyl)piperazin-1-yl)(5-isopropylthiophen-3-yl)methanone], the half-inhibitory concentration (IC50) was found to be 0.87 µM in assay [1], 1.4 µM in assay [2] and 0.8 µM in assay [3]. Moreover, in assay [2], the inhibition at 10 µM came out at 90%. For the same compound, the inhibition at 30 µM in assay [2] came out at 97%.

Turning to `Cc1cccc(C(=O)N2CCN(c3cc(C(C)(C)C)cc(C(C)(C)C)c3)CC2)n1` [Compound 49, (4-(3,5-di-tert-butylphenyl)piperazin-1-yl)(6-methylpyridin-2-yl)methanone], the IC50 in assay [1] amounted to 1.88 µM. Besides, in assay [2], the inhibition at 10 µM stood at 102%, the inhibition at 30 µM was determined as 105% and the IC50 was 1.66 µM. Also, the concentration for half-maximal inhibition (IC50) in assay [3] is 1.52 µM.

Turning to `CCn1nc(C)cc1C(=O)N1CCN(c2cc(C(C)(C)C)cc(C(C)(C)C)c2)CC1` [Compound 33, (4-(3,5-di-tert-butylphenyl)piperazin-1-yl)(1-ethyl-3-methyl-1H-pyrazol-5-yl)methanone], the values for the IC50 in assay [1], in assay [2] and in assay [3] were 2.52 µM, 0.83 µM and 2.34 µM, respectively. For the same compound, in assay [2], the inhibition at 10 µM is 97%. The inhibition at 30 µM in assay [2] turned out to be 95%.

On to `Cc1nc(C(=O)N2CCN(c3cc(C(C)(C)C)cc(C(C)(C)C)c3)CC2)c(C(F)(F)F)o1` [Compound 37, (4-(3,5-di-tert-butylphenyl)piperazin-1-yl)(2-methyl-5-(trifluoromethyl)oxazol-4-yl)methanone], for which the IC50 in assay [1] was determined as 2.29 µM. For the same compound, in assay [2], the inhibition at 10 µM is 94%, the inhibition at 30 µM worked out at 101% and the IC50 amounted to 0.55 µM. Moreover, the IC50 in assay [3] turned out to be 2.04 µM.

For `CCSc1ncccc1C(=O)N1CCN(c2cc(C(C)(C)C)cc(C(C)(C)C)c2)CC1` [Compound 45, (4-(3,5-di-tert-butylphenyl)piperazin-1-yl)(2-(ethylthio)pyridin-3-yl)methanone], the figures for the IC50 in assay [1], in assay [2] and in assay [3] were 1.8 µM, 1.08 µM and 0.96 µM, respectively. For the same compound, the inhibition at 10 µM in assay [2] was found to be 97%. In assay [2], the inhibition at 30 µM was determined as 101%.

For the compound `Cc1cc(C(=O)N2CCN(c3cc(C(C)(C)C)cc(C(C)(C)C)c3)CC2)n(C(C)(C)C)n1` [Compound 10, (1-tert-butyl-3-methyl-1H-pyrazol-5-yl)(4-(3,5-di-tert-butylphenyl)piperazin-1-yl)methanone], in assay [1], the IC50 came out at 1.31 µM. For the same compound, in assay [2], the inhibition at 10 µM stood at 96%, the inhibition at 30 µM amounted to 104% and the IC50 is 0.37 µM. In addition, in assay [3], the IC50 was found to be 1.07 µM.

The term IC50 denotes the concentration that gives 50% inhibition.
